According to patent US20020048549A1, “Radioactive transition metal nitride heterocomplex” (priority 1996, published 2002):
Where two headings read alike, the source gives them in different places.

Experiment: Biodistribution of 99mTc(N)(X)(DTC)+ heterocomplexes in rats
Assay type: in vivo, male Spraque-Dawley rats (SD rats)
Procedure: The biodistribution of a ^99mTc nitride heterocomplex represented by the general formula ^99mTc(N)(X)(Y) was investigated as follows: ^99mTc nitride heterocomplexes were synthesized using DTC as a bidentate ligand Y and each of the diphosphine compounds X described below, and the biodistribution in rats of each heterocomplex was investigated.
Before being injected into rats, the contents of the vial were diluted with phosphate buffer (0.1 mol/dm^3, pH=7.06) containing 10% Tween 80 ([…]). The complexes were stable in the solutions and in human plasma for at least 6 hours.
The biodistribution was measured using male Spraque-Dawley rats (SD rats) weighing 200 to 250 g. After 24 hours fasting, the rats were put under intraperitoneal anesthesia and given an injection in the jugular vein. Then, the organs were excised from the rats at different intervals of time, washed and then weighed. In addition, blood samples were collected and then weighed. The data on the biodistribution are expressed as the mean±significant difference of the percentage of radioactivity level per gram of the organ weight based on the dose of radioactivity, (% dose/g). The measurement was carried out using groups of 5 rats each.

CCCN1CC[P+](c2ccccc2)(c2ccccc2)[99Tc-2]2(#[N])([NH]N(C)C(SC)=[S+]2)[P+](c2ccccc2)(c2ccccc2)CC1 [^99mTc(N)(PNP1)(DTC)^+]
Bone % dose/g: 0.244 ± 0.01 % dose/g
Heart % dose/g: 1.236 ± 0.08 % dose/g
Liver % dose/g: 3.593 ± 0.42 % dose/g
Spleen % dose/g: 1.948 ± 0.20 % dose/g
Blood % dose/g (0 min after injection): 2.125 ± 0.3 % dose/g
Brain % dose/g (0 min after injection): 0.143 ± 0.02 % dose/g
Intestine % dose/g (0 min after injection): 0.418 ± 0.03 % dose/g
Kidney % dose/g (0 min after injection): 2.66 ± 0.05 % dose/g
Lung % dose/g (0 min after injection): 5.815 ± 0.04 % dose/g
Muscle % dose/g (0 min after injection): 0.098 ± 0.00 % dose/g
Stomach % dose/g (0 min after injection): 0.337 ± 0.00 % dose/g
Blood % dose/g (2 min after injection): 1.062 ± 0.13 % dose/g
Bone % dose/g (2 min after injection): 0.234 ± 0.06 % dose/g
Brain % dose/g (2 min after injection): 0.086 ± 0.00 % dose/g
Heart % dose/g (2 min after injection): 0.824 ± 0.01 % dose/g
Intestine % dose/g (2 min after injection): 0.471 ± 0.00 % dose/g
Kidney % dose/g (2 min after injection): 4.145 ± 0.64 % dose/g
Liver % dose/g (2 min after injection): 5.555 ± 0.83 % dose/g
Lung % dose/g (2 min after injection): 4.653 ± 0.65 % dose/g
Muscle % dose/g (2 min after injection): 0.085 ± 0.01 % dose/g
Spleen % dose/g (2 min after injection): 4.459 ± 0.09 % dose/g
Stomach % dose/g (2 min after injection): 0.379 ± 0.02 % dose/g
Blood % dose/g (10 min after injection): 0.495 ± 0.01 % dose/g
Bone % dose/g (10 min after injection): 0.3 ± 0.05 % dose/g
Brain % dose/g (10 min after injection): 0.041 ± 0.00 % dose/g
Heart % dose/g (10 min after injection): 0.795 ± 0.06 % dose/g
Intestine % dose/g (10 min after injection): 0.704 ± 0.08 % dose/g
Kidney % dose/g (10 min after injection): 4.251 ± 0.02 % dose/g
Liver % dose/g (10 min after injection): 5.795 ± 0.03 % dose/g
Lung % dose/g (10 min after injection): 3.191 ± 0.60 % dose/g
Muscle % dose/g (10 min after injection): 0.121 ± 0.02 % dose/g
Spleen % dose/g (10 min after injection): 7.237 ± 0.88 % dose/g
Stomach % dose/g (10 min after injection): 0.438 ± 0.03 % dose/g
Blood % dose/g (30 min after injection): 0.285 ± 0.01 % dose/g
Bone % dose/g (30 min after injection): 0.324 ± 0.05 % dose/g
Brain % dose/g (30 min after injection): 0.027 ± 0.00 % dose/g
Heart % dose/g (30 min after injection): 0.513 ± 0.07 % dose/g
Intestine % dose/g (30 min after injection): 1.107 ± 0.31 % dose/g
Kidney % dose/g (30 min after injection): 4.095 ± 0.73 % dose/g
Liver % dose/g (30 min after injection): 5.976 ± 0.49 % dose/g
Lung % dose/g (30 min after injection): 2.089 ± 0.16 % dose/g
Muscle % dose/g (30 min after injection): 0.106 ± 0.00 % dose/g
Spleen % dose/g (30 min after injection): 5.884 ± 2.7 % dose/g
Stomach % dose/g (30 min after injection): 0.444 ± 0.09 % dose/g
Blood % dose/g (1 hr after injection): 0.311 ± 0.03 % dose/g
Bone % dose/g (1 hr after injection): 0.398 ± 0.12 % dose/g
Brain % dose/g (1 hr after injection): 0.019 ± 0.00 % dose/g
Heart % dose/g (1 hr after injection): 0.55 ± 0.04 % dose/g
Intestine % dose/g (1 hr after injection): 0.896 ± 0.04 % dose/g
Kidney % dose/g (1 hr after injection): 4.779 ± 0.21 % dose/g
Liver % dose/g (1 hr after injection): 5.116 ± 0.00 % dose/g
Lung % dose/g (1 hr after injection): 1.586 ± 0.16 % dose/g
Muscle % dose/g (1 hr after injection): 0.302 ± 0.39 % dose/g
Spleen % dose/g (1 hr after injection): 6.711 ± 1.27 % dose/g
Stomach % dose/g (1 hr after injection): 0.625 ± 0.34 % dose/g
Blood % dose/g (2 hr after injection): 0.22 ± 0.05 % dose/g
Bone % dose/g (2 hr after injection): 0.347 ± 0.01 % dose/g
Brain % dose/g (2 hr after injection): 0.025 ± 0.00 % dose/g
Heart % dose/g (2 hr after injection): 0.603 ± 0.05 % dose/g
Intestine % dose/g (2 hr after injection): 0.977 ± 0.42 % dose/g
Kidney % dose/g (2 hr after injection): 5.327 ± 0.52 % dose/g
Liver % dose/g (2 hr after injection): 3.524 ± 0.53 % dose/g
Lung % dose/g (2 hr after injection): 1.716 ± 0.23 % dose/g
Muscle % dose/g (2 hr after injection): 0.111 ± 0.01 % dose/g
Spleen % dose/g (2 hr after injection): 4.747 ± 1.78 % dose/g
Stomach % dose/g (2 hr after injection): 0.776 ± 0.07 % dose/g
Blood % dose/g (4 hr after injection): 0.137 ± 0.02 % dose/g
Bone % dose/g (4 hr after injection): 0.264 ± 0.10 % dose/g
Brain % dose/g (4 hr after injection): 0.021 ± 0.00 % dose/g
Heart % dose/g (4 hr after injection): 0.382 ± 0.04 % dose/g
Intestine % dose/g (4 hr after injection): 0.906 ± 0.24 % dose/g
Kidney % dose/g (4 hr after injection): 4.282 ± 0.67 % dose/g
Liver % dose/g (4 hr after injection): 2.604 ± 0.25 % dose/g
Lung % dose/g (4 hr after injection): 1.08 ± 0.16 % dose/g
Muscle % dose/g (4 hr after injection): 0.077 ± 0.01 % dose/g
Spleen % dose/g (4 hr after injection): 6.294 ± 1.29 % dose/g
Stomach % dose/g (4 hr after injection): 0.719 ± 0.18 % dose/g

COCCN1CC[P+](c2ccccc2)(c2ccccc2)[99Tc-2]2(#[N])([NH]N(C)C(SC)=[S+]2)[P+](c2ccccc2)(c2ccccc2)CC1 [^99mTc(N)(PNP2)(DTC)^+]
Bone % dose/g: 0.209 ± 0.01 % dose/g
Heart % dose/g: 1.399 ± 0.08 % dose/g
Liver % dose/g: 3.385 ± 0.81 % dose/g
Spleen % dose/g: 2.739 ± 0.07 % dose/g
Blood % dose/g (0 min after injection): 3.220 ± 0.45 % dose/g
Brain % dose/g (0 min after injection): 0.120 ± 0.00 % dose/g
Intestine % dose/g (0 min after injection): 0.906 ± 0.03 % dose/g
Kidney % dose/g (0 min after injection): 5.702 ± 0.732 % dose/g
Lung % dose/g (0 min after injection): 3.568 ± 0.94 % dose/g
Muscle % dose/g (0 min after injection): 0.134 ± 0.01 % dose/g
Stomach % dose/g (0 min after injection): 0.752 ± 0.09 % dose/g
Blood % dose/g (2 min after injection): 1.025 ± 0.02 % dose/g
Bone % dose/g (2 min after injection): 0.265 ± 0.04 % dose/g
Brain % dose/g (2 min after injection): 0.065 ± 0.01 % dose/g
Heart % dose/g (2 min after injection): 0.728 ± 0.04 % dose/g
Intestine % dose/g (2 min after injection): 1.694 ± 0.18 % dose/g
Kidney % dose/g (2 min after injection): 4.941 ± 0.60 % dose/g
Liver % dose/g (2 min after injection): 7.723 ± 0.20 % dose/g
Lung % dose/g (2 min after injection): 2.040 ± 0.234 % dose/g
Muscle % dose/g (2 min after injection): 0.077 ± 0.00 % dose/g
Spleen % dose/g (2 min after injection): 5.018 ± 0.02 % dose/g
Stomach % dose/g (2 min after injection): 0.0603 ± 0.03 % dose/g
Blood % dose/g (10 min after injection): 0.355 ± 0.03 % dose/g
Bone % dose/g (10 min after injection): 0.268 ± 0.10 % dose/g
Brain % dose/g (10 min after injection): 0.040 ± 0.00 % dose/g
Heart % dose/g (10 min after injection): 0.736 ± 0.12 % dose/g
Intestine % dose/g (10 min after injection): 2.861 ± 0.74 % dose/g
Kidney % dose/g (10 min after injection): 6.910 ± 0.081 % dose/g
Liver % dose/g (10 min after injection): 4.686 ± 0.89 % dose/g
Lung % dose/g (10 min after injection): 1.481 ± 0.10 % dose/g
Muscle % dose/g (10 min after injection): 0.064 ± 0.02 % dose/g
Spleen % dose/g (10 min after injection): 5.334 ± 0.10 % dose/g
Stomach % dose/g (10 min after injection): 0.517 ± 0.16 % dose/g
Blood % dose/g (30 min after injection): 0.333 ± 0.03 % dose/g
Bone % dose/g (30 min after injection): 0.301 ± 0.03 % dose/g
Brain % dose/g (30 min after injection): 0.020 ± 0.00 % dose/g
Heart % dose/g (30 min after injection): 0.652 ± 0.19 % dose/g
Intestine % dose/g (30 min after injection): 7.254 ± 0.46 % dose/g
Kidney % dose/g (30 min after injection): 7.542 ± 1.410 % dose/g
Liver % dose/g (30 min after injection): 7.341 ± 0.38 % dose/g
Lung % dose/g (30 min after injection): 1.015 ± 0.16 % dose/g
Muscle % dose/g (30 min after injection): 0.103 ± 0.02 % dose/g
Spleen % dose/g (30 min after injection): 5.131 ± 0.59 % dose/g
Stomach % dose/g (30 min after injection): 1.135 ± 0.298 % dose/g
Blood % dose/g (1 hr after injection): 0.19 ± 0.01 % dose/g
Bone % dose/g (1 hr after injection): 0.294 ± 0.02 % dose/g
Brain % dose/g (1 hr after injection): 0.025 ± 0.00 % dose/g
Heart % dose/g (1 hr after injection): 0.534 ± 0.02 % dose/g
Intestine % dose/g (1 hr after injection): 7.644 ± 1.01 % dose/g
Kidney % dose/g (1 hr after injection): 6.713 ± 0.83 % dose/g
Liver % dose/g (1 hr after injection): 7.436 ± 1.44 % dose/g
Lung % dose/g (1 hr after injection): 1.011 ± 0.01 % dose/g
Muscle % dose/g (1 hr after injection): 0.075 ± 0.01 % dose/g
Spleen % dose/g (1 hr after injection): 5.073 ± 0.01 % dose/g
Stomach % dose/g (1 hr after injection): 0.932 ± 0.12 % dose/g
Blood % dose/g (2 hr after injection): 0.129 ± 0.02 % dose/g
Bone % dose/g (2 hr after injection): 0.357 ± 0.08 % dose/g
Brain % dose/g (2 hr after injection): 0.025 ± 0.00 % dose/g
Heart % dose/g (2 hr after injection): 0.511 ± 0.05 % dose/g
Intestine % dose/g (2 hr after injection): 6.442 ± 0.59 % dose/g
Kidney % dose/g (2 hr after injection): 6.799 ± 1.348 % dose/g
Liver % dose/g (2 hr after injection): 4.061 ± 0.64 % dose/g
Lung % dose/g (2 hr after injection): 0.962 ± 0.02 % dose/g
Muscle % dose/g (2 hr after injection): 0.102 ± 0.02 % dose/g
Spleen % dose/g (2 hr after injection): 5.507 ± 0.84 % dose/g
Stomach % dose/g (2 hr after injection): 1.701 ± 0.34 % dose/g
Blood % dose/g (4 hr after injection): 0.087 ± 0.00 % dose/g
Bone % dose/g (4 hr after injection): 0.329 ± 0.01 % dose/g
Brain % dose/g (4 hr after injection): 0.018 ± 0.00 % dose/g
Heart % dose/g (4 hr after injection): 0.506 ± 0.04 % dose/g
Intestine % dose/g (4 hr after injection): 4.054 ± 0.39 % dose/g
Kidney % dose/g (4 hr after injection): 7.471 ± 0.03 % dose/g
Liver % dose/g (4 hr after injection): 1.784 ± 0.25 % dose/g
Lung % dose/g (4 hr after injection): 0.670 ± 0.09 % dose/g
Muscle % dose/g (4 hr after injection): 0.08 ± 0.00 % dose/g
Spleen % dose/g (4 hr after injection): 5.055 ± 0.02 % dose/g
Stomach % dose/g (4 hr after injection): 1.220 ± 0.150 % dose/g
